Measurements taken from US10669272B2, “Substituted naphthyridinone compounds useful as T cell activators” (BRISTOL-MYERS SQUIBB COMPANY, priority 2018, dated 2020).
Like-named read-outs stand apart in the source and are kept apart here.

Assays:
human DGKα = target: T1, human DGKα (Homo sapiens, UniProt P23743); experiment: DGKα LIPGLO assay (extruded liposome substrate), in vitro DGK inhibition; format: biochemical; conditions: liposome (LIPGLO) assay; read-out: DGKa LIPGLO IC50
T1 construct: TVMV protease cleavage site (C); Hexa-His (C); made in house; host or cells: Sf9 insect cells (baculovirus, Bac-to-Bac)
T1 sequence (P23743 with tags, fused parts or gaps): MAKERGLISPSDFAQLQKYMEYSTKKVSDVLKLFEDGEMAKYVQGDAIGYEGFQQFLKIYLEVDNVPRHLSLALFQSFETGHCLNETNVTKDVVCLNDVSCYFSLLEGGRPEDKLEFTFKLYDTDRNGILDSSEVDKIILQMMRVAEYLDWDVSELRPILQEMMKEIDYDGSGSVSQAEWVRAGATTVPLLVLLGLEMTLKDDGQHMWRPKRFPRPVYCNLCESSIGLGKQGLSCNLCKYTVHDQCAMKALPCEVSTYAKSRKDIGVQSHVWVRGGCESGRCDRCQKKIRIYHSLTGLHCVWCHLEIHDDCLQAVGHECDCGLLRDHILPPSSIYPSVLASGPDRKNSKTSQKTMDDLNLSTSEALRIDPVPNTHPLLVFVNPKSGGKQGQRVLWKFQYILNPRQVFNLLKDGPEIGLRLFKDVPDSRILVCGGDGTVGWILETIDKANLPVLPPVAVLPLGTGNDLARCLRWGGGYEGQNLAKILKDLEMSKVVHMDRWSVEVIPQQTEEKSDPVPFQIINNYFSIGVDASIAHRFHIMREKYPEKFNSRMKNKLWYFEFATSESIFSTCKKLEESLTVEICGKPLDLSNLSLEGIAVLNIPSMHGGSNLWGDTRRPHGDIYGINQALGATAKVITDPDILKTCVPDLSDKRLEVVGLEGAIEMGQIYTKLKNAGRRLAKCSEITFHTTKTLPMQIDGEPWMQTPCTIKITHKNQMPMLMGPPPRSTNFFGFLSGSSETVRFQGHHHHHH

human DGKζ = target: T2, human DGKζ (Homo sapiens, UniProt Q13574); experiment: DGKζ LIPGLO assay (extruded liposome substrate), in vitro DGK inhibition; format: biochemical; conditions: liposome (LIPGLO) assay; read-out: DGKz LIPGLO IC50
T2 construct: TVMV protease cleavage site (C); Hexa-His (C); made in house; host or cells: Sf9 insect cells (baculovirus, Bac-to-Bac)
T2 sequence (Q13574 with tags, fused parts or gaps isoform Q13574-4): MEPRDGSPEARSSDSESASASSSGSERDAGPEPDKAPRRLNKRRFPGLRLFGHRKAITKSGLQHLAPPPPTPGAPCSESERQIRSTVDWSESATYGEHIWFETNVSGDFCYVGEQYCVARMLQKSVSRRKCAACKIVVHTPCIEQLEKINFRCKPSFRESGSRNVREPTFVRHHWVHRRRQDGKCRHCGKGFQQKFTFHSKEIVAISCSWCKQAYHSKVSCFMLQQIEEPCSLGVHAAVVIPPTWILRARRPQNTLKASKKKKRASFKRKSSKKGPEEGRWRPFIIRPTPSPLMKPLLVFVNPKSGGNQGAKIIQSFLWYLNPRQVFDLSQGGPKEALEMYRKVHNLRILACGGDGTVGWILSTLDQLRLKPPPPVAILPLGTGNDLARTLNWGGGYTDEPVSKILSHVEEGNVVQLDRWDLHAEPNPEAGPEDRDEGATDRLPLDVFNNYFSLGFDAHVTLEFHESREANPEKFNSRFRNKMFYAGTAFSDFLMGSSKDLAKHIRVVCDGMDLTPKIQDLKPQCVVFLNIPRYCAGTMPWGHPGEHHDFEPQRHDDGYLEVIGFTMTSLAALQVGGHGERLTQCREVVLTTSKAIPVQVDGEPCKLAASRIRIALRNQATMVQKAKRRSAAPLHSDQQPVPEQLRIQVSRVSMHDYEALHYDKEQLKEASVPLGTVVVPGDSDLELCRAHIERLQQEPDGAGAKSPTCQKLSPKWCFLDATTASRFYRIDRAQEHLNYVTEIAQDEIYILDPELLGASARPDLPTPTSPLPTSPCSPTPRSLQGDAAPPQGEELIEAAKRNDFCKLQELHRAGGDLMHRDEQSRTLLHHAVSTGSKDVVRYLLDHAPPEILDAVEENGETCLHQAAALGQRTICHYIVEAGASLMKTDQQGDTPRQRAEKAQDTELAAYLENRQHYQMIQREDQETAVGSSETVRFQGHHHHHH

[1] = tested on: OT-1 CD8+ T cells with SIINFEKL-loaded MC38 tumor cells; experiment: Murine cytotoxic T lymphocyte assay (IFN-γ, OT-1 CTL with MC38 tumor cells); format: cell-based, mouse; conditions: read-out: msCTL INFg IC50
Text: 5. Murine Cytotoxic T Lymphocyte Assay
An antigen-specific cytolytic T-cell (CTL) assay was developed to evaluate functionally the ability of DGKα and DGKζ inhibitors to enhance effector T cell mediated tumor cell killing activity. CD8+ T-cells isolated from the OT-1 transgenic mouse recognize antigen presenting cells, MC38, that present the ovalbumin derived peptide […]. Recognition of the cognate antigen initiates the cytolytic activity of the OT-1 antigen-specific CD8+ T cells.
Functional CTL cells were generated as follows: OT-1 splenocytes from 8-12 week old mice were isolated and expanded in the presence of the […] peptide at 1 μg/mL and mIL2 at 10 U/mL. After three days, fresh media with […] was added. On day 5 of the expansion, the CD8+ T cells were isolated and ready for use. Activated CTL cells may be stored frozen for 6 months. Separately, one million MC38 tumor cells were pulsed with 1 μg/mL of […]-OVA peptide for 3 hours at 37° C. The cells were washed (3×) with fresh media to remove excess peptide. Finally, CTL cells that were pretreated with DGK inhibitors for 1 hour in a 96-well U bottom plate were combined with the antigen loaded MC38 tumor cells at a 1:10 ratio. The cells were then spun at 700 rpm for 5 min and placed in an incubator overnight at 37° C. After 24 hours, the supernatant was collected for analysis of IFN-γ cytokine levels by AlphaLisa purchased from Perkin Elmer.

naïve human CD8 T cells = experiment: Human CD8 T cells IFN-γ assay; format: cell-based; conditions: normalized to 3 μM reference compound with anti-CD3 plus anti-CD28 as 100% activation, read-out: HuCD8 INFG Normalized EC50;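 further: Naïve human CD8 T cells stimulated with plate-bound anti-CD3 and soluble anti-CD28, IFN-γ in supernatant quantified by AlphaLISA and converted to pg/mL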
Human venous whole blood = experiment: Human whole blood IFN-γ assay; format: cell-based; conditions: normalized to 3 μM reference compound with anti-CD3 plus anti-CD28 as 100% activation;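 further: blood from healthy donors exposed to compound for 1 h before stimulation with anti-CD3 and anti-CD28 at 1 µg/mL each, IFN-γ quantified in supernatant by AlphaLISA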
Description: Human Whole Blood IFN-γ Assay
Human venous whole blood (22.5 μL per well), obtained from healthy donors, was pre-treated with compounds for one hour at 37° C. in a humidified 95% air/5% CO2 incubator. The blood was stimulated with 2.5 μL anti-human CD3 and anti-CD28 mAb at a final concentration of 1 μg/mL each for 24 hours at 37° C. IFN-γ in the supernatants was measured using AlphLISA kit (Cat # AL217).

[2] = Homo sapiens, 24 h, read-out: INFg Whole Blood Normalized Agonist EC50, human whole blood

SMILES	IC50 (human DGKα) [nM]	IC50 (human DGKζ) [nM]	IC50 [1] [nM]	EC50 (naïve human CD8 T cells; Homo sapiens, T-cell, 20 h) [nM]	EC50 (naïve human CD8 T cells) [nM]	IC50 ([1]; Mus musculus, MC-38) [nM]	other results
COC(=O)C1CN(C(c2ccc(F)cc2)c2ccc(F)cc2)CCN1c1cc(=O)n(C)c2ccc(C#N)nc12 (single isomer, unassigned) [Example 136, Methyl 4-(bis(4-fluorophenyl)methyl)-1-(6-cyano-1-methyl-2-oxo-1,2-dihydro-1,5-naphthyridin-4-yl)piperazine-2-carboxylate]	25000	39000	520	950	–	–	–
CC(C)OC(=O)C1CN(c2cc(=O)n(C)c3ccc(C#N)nc23)CCN1C(c1ccc(F)cc1)c1ccc(F)cc1 (single isomer, unassigned) [Example 63, Isopropyl 1-(bis(4-fluorophenyl)methyl)-4-(6-cyano-1-methyl-2-oxo-1,2-dihydro-1,5-naphthyridin-4-yl)piperazine-2-carboxylate]	240000	240000	1600	–	210	–	–
Cn1c(=O)cc(N2CCN(C(c3ccc(F)cc3)c3ccc(F)cc3)CC2C(=O)NC2CC2)c2nc(C#N)ccc21 (single isomer, unassigned) [Example 139, 4-(bis(4-fluorophenyl)methyl)-1-(6-cyano-1-methyl-2-oxo-1,2-dihydro-1,5-naphthyridin-4-yl)-N-cyclopropylpiperazine-2-carboxamide]	240000	110000	–	–	50000	10000	–
Cn1c(=O)c(C#N)c(N2CCN(C(c3ccc(F)cc3)c3ccc(F)cc3)C(CO)C2)c2nc(C#N)ccc21 (single isomer, unassigned) [Example 15, 8-(4-(bis(4-fluorophenyl)methyl)-3-(hydroxymethyl)piperazin-1-yl)-5-methyl-6-oxo-5,6-dihydro-1,5-naphthyridine-2,7-dicarbonitrile]	5100	6600	–	–	10000	910	–
C[C@@H]1CN(c2cc(=O)n(C)c3ccc(C#N)nc23)[C@@H](C)CN1C(c1ccc(F)cc1)c1ccccc1F (single isomer, unassigned) [Example 305]	–	–	23	–	26	–	EC50 (Human venous whole blood; read-out: INFg Whole Blood Normalized Agonist EC50, human whole blood): 680 nM
C[C@H]1CN(C(c2ccc(F)cc2)c2ccc(F)cc2)CCN1c1cc(=O)n(C)c2ccc(C#N)nc12 [Example 134, (S)-8-(4-(bis(4-fluorophenyl)methyl)-2-methylpiperazin-1-yl)-5-methyl-6-oxo-5,6-dihydro-1,5-naphthyridine-2-carbonitrile]	13000	4900	–	590	–	390	–
CC(C)OC(=O)C1CN(c2c(C#N)c(=O)n(C)c3ccc(C#N)nc23)CCN1C(c1ccc(F)cc1)c1ccc(F)cc1 (single isomer, unassigned) [Example 65, Isopropyl 1-(bis(4-fluorophenyl)methyl)-4-(3,6-dicyano-1-methyl-2-oxo-1,2-dihydro-1,5-naphthyridin-4-yl)piperazine-2-carboxylate]	240000	–	8400	–	1700	–	EC50 (Human venous whole blood; Homo sapiens, 24 h, human whole blood, read-out: INFg Whole Blood Normalized Agonist EC50): 16000 nM
C[C@@H]1CN(c2cc(=O)n(C)c3ccc(C#N)nc23)[C@@H](C)CN1C(c1ccccc1)c1ccc(F)cc1 (single isomer, unassigned) [Example 183]	–	–	–	39	–	33	EC50 (Human venous whole blood; Homo sapiens, human whole blood, read-out: INFg Whole Blood Normalized Agonist EC50): 700 nM
COC(=O)C1CN(c2c(C#N)c(=O)n(C)c3ccc(C#N)nc23)CCN1C(c1ccc(F)cc1)c1ccc(F)cc1 (single isomer, unassigned) [Example 51, methyl 1-(bis(4-fluorophenyl)methyl)-4-(3,6-dicyano-1-methyl-2-oxo-1,2-dihydro-1,5-naphthyridin-4-yl)piperazine-2-carboxylate]	–	2100	1900	–	510	–	EC50 (Human venous whole blood; human whole blood, read-out: INFg Whole Blood Normalized Agonist EC50): 1600 nM
Cn1c(=O)c(C#N)c(N2CCN(C(c3ccc(F)cc3)c3ccc(F)cc3)C(CO)C2)c2nc(C#N)ccc21 (single isomer, unassigned) [Example 16, 8-(4-(bis(4-fluorophenyl)methyl)-3-(hydroxymethyl)piperazin-1-yl)-5-methyl-6-oxo-5,6-dihydro-1,5-naphthyridine-2,7-dicarbonitrile]	7500	12000	1400	–	530	–	–
C[C@@H]1CN(C(c2ccc(F)cc2)c2ccc(F)cc2)[C@@H](C)CN1c1cc(=O)n(C)c2ccc(C#N)nc12 [Example 4, 8-((2R,5S)-4-(bis(4-fluorophenyl)methyl)-2,5-dimethylpiperazin-1-yl)-5-methyl-6-oxo-5,6-dihydro-1,5-naphthyridine-2-carbonitrile]	–	–	–	300	–	320	EC50 (Human venous whole blood; [2]): 3500 nM
COC(=O)[C@@H]1CN(c2cc(=O)n(C)c3ccc(C#N)nc23)CCN1C(c1ccc(F)cc1)c1ccc(F)cc1 [Example 66, Methyl (S)-1-(bis(4-fluorophenyl)methyl)-4-(6-cyano-1-methyl-2-oxo-1,2-dihydro-1,5-naphthyridin-4-yl)piperazine-2-carboxylate]	2400	1200	–	160	–	66	–
C[C@@H]1CN(c2c(Cl)c(=O)n(C)c3ccc(C#N)nc23)CCN1C(c1ccc(F)cc1)c1ccc(F)cc1 [Example 29, (R)-8-(4-(bis(4-fluorophenyl)methyl)-3-methylpiperazin-1-yl)-7-chloro-5-methyl-6-oxo-5,6-dihydro-1,5-naphthyridine-2-carbonitrile]	–	–	–	18	–	37	EC50 (Human venous whole blood; [2]): 1300 nM
Cn1c(=O)c(C#N)c(N2CCN(C(c3ccc(F)cc3)c3ccc(F)cc3)C(C(=O)O)C2)c2nc(C#N)ccc21 (single isomer, unassigned) [Example 54, 1-(bis(4-fluorophenyl)methyl)-4-(3,6-dicyano-1-methyl-2-oxo-1,2-dihydro-1,5-naphthyridin-4-yl)piperazine-2-carboxylic acid]	200000	120000	–	–	10000	10000	–
C[C@H]1CN(C(c2ccc(F)cc2)c2ccc(F)cc2)[C@@H](C)CN1c1cc(=O)n(C)c2ccc(C#N)nc12 [Example 133, 8-((2S,5S)-4-(bis(4-fluorophenyl)methyl)-2,5-dimethylpiperazin-1-yl)-5-methyl-6-oxo-5,6-dihydro-1,5-naphthyridine-2-carbonitrile]	–	–	–	840	–	1100	EC50 (Human venous whole blood; [2]): 5800 nM
CC1CN(c2cc(=O)n(C)c3ccc(C#N)nc23)CC(C)N1C(c1ccc(F)cc1)c1ccc(F)cc1 (stereo not shown) [Example 163, 8-(4-(bis(4-fluorophenyl)methyl)-3,5-dimethylpiperazin-1-yl)-5-methyl-6-oxo-5,6-dihydro-1,5-naphthyridine-2-carbonitrile]	16000	12000	–	1500	–	2100	–
C[C@@H]1CN(c2cc(=O)n(C)c3ccc(C#N)nc23)[C@@H](C)CN1C(c1ccc(F)cc1)c1ccccc1F (single isomer, unassigned) [Example 304]	–	–	47	–	8.5	–	EC50 (Human venous whole blood; [2]): 490 nM
Cn1c(=O)c(C#N)c(N2CCN(C(c3ccc(F)cc3)c3ccc(F)cc3)C(C(=O)NC3CC3)C2)c2nc(C#N)ccc21 (single isomer, unassigned) [Example 60, 1-(bis(4-fluorophenyl)methyl)-N-cyclopropyl-4-(3,6-dicyano-1-methyl-2-oxo-1,2-dihydro-1,5-naphthyridin-4-yl)piperazine-2-carboxamide]	240000	72000	–	10000	–	10000	–
CC(C)OC(=O)C1CN(c2c(C#N)c(=O)n(C)c3ccc(C#N)nc23)CCN1C(c1ccc(F)cc1)c1ccc(F)cc1 (single isomer, unassigned) [Example 64, Isopropyl 1-(bis(4-fluorophenyl)methyl)-4-(3,6-dicyano-1-methyl-2-oxo-1,2-dihydro-1,5-naphthyridin-4-yl)piperazine-2-carboxylate]	240000	240000	–	–	10000	8800	–
